From patent US20170022258A1, “PEPTIDES FOR USE IN THE TREATMENT OF IL-1 RELATED DISEASES AND CONDITIONS” (C4M PHARMACEUTICALS PTY LTD., priority 2011, published 2017)
Non-standard residues stand in square brackets, D forms with d. Residues, ends and D or L forms follow the SMILES beside them.

System: IL-1α+IFN-γ induced IL-8 production by HT-29 cells
Experiment: IL-1α+IFN-γ induced IL-8 production by HT-29 cells
Format: cell-based, human
Procedure: Human colon epithelial cell lines HT-29 and Caco2 obtained from the European Collection of Animal Cell Cultures (ECACC) were used in cell cultures. Cells were routinely cultured at 37° C. in an atmosphere of 5% CO2 in 80 cm^2 tissue culture flasks in McCoy's and DMEM medium, respectively, supplemented with penicillin (10 u/ml), streptomycin (10 μg/ml), fungizone (0.5 μg/ml), and 10% (v/v) FCS (referred to as complete medium) until confluent.
Confluent monolayers were sub-cultured into 6-well plates for experimental protocols. Cells were grown in 6-well plates until confluent. Twenty-four hours prior to the experiment the confluent monolayers were washed and cultured in FCS-free McCoy's medium. Growth arrested cultures were then treated with fresh FCS-free medium and stimulated with vehicle controls or various doses of IL-1α added alone or in combination with other pro-inflammatory cytokines (TNF-α, IFN-γ) in the presence or absence of the peptide of sequence 4 or IL-1 ra, in a dose and time dependent manner.
Supernatants were collected, centrifuged to remove cellular debris and stored at −70° C. until assayed for extracellular inflammatory mediators. Total RNA for RT-PCR was extracted as described above. Cell counting and viability was routinely checked at the beginning and the end of the experiment by phase microscopy and by trypan blue exclusion using representative wells. Mycoplasma tests were performed during the experimental protocol. Production of soluble mediators was assessed by commercially available ELISA in supernatants, RT-PCR in total RNA extractants and nitric oxide, as described in Kolios, G, et al. (1995). Br J Pharmacol, 116, 2866-2872, the contents of which are incorporated herein by reference.
Stimulation of HT-29 cells with a combination of pro-inflammatory cytokines induces increased secretion of chemokines, including IL-8 (as described in Kolios, G, et al. (1999). Eur J Immunol, 29, 530-536 the contents of which are herein incorporated by reference). […]

CC(=O)N[C@H](CC(C)C)C(=O)N1CCC[C@@H]1C(=O)N[C@H](CC(C)C)C(=O)N[C@H](C)C(=O)N[C@H](Cc1ccc(O)cc1)C(=O)N1CCC[C@@H]1C(=O)N[C@H](CCC(N)=O)C(=O)N[C@H](Cc1c[nH]c2ccccc12)C(=O)N[C@H](Cc1ccc(O)cc1)C(=O)NCC(=O)N1CCC[C@@H]1C(=O)N[C@@H](C(=O)N[C@H](Cc1c[nH]c2ccccc12)C(=O)N[C@H](CCC(=O)O)C(=O)N[C@H](Cc1ccccc1)C(=O)O)[C@H](C)O [SEQ ID NO. 4, Ac-LPLAYPQWYGPTWEF] (Ac-[dL][dP][dL][dA][dY][dP][dQ][dW][dY]G[dP][dT][dW][dE][dF]-OH; C-terminus assumed)
IL-1α+IFN-γ induced IL-8 production (10 ng/ml IL-1α+300 U IFN-γ, peptide 5 ng/ml, stimulated control 78.79±6.99, n=3): 35.41±4.23 ng/ml per 106 cells
Effect on IL-1α+IFN-γ induced IL-8 production (all concentrations used, 5 ng/ml-1 μg/ml, p<0.01, FIG. 3): inhibitory effect for all concentrations used
